# Test results as given in publication PMC8795149, “Characterization of a novel non-steroidal glucocorticoid receptor agonist optimized for topical treatment” (Scientific Reports, 2022).
# Several values for one entry are separate records, joined by “and”; a condition that tells them apart may be missing. Equal values may be shown once.
# Legend:
# [1] = system: FKBP5 mRNA (GR target engagement); experiment: Minipig skin FKBP5 gene expression after 4 weeks topical treatment; assay type: in vivo; settings: minipigs, LEO 134310 2%, CP 0.05%, BMV 0.1%
# Procedure: Each animal was treated for 6 h daily over 28 days with 25 µL of the following topical formulations on an application area of 2.5 cm × 2.5 cm: Vehicle (transcutol:acetone (1:9) with 10% hydroxy-propyl-cellulose); Dermovate cream (CP 0.05%), CP 0.05% in vehicle; Betnovate cream (BMV 0.1%); BMV 0.1% in vehicle; LEO 134310 2% in vehicle. One test field on each animal remained untreated.
# RNA was extracted from the biopsies and qPCR was performed using customized TaqMan gene expression assays for FKBP5 and TBP (reference gene).
# [2] = Stability in whole blood (rat); assay type: in vitro ADME; settings: 0.1 µM, 37 °C
# Procedure: (§1) Compounds were incubated in diluted fresh rat, dog, minipig or human whole blood (heparin stabilized, 50% blood and 50% phosphate buffer with 1% bovine serum albumin) for 120 min at 0.1 µM, at 37 °C and the half-lives were determined. Samples were taken at 0, 15, 30, 60 and 120 min, and reactions were terminated by addition of acetonitrile containing analytical internal standard (IS). Test compound depletion was determined using time-of-flight mass spectrometry in positive ion mode (TOF–MS; AB Sciex API5600). Elimination rate constants (k) were calculated from peak areas and the half-lives was determined (t½ = ln2/k).
# [3] = Stability in whole blood (dog); assay type: in vitro ADME; settings: 0.1 µM, 37 °C
# Procedure: as §1
# [4] = Stability in whole blood (minipig); assay type: in vitro ADME; settings: 0.1 µM, 37 °C
# Procedure: as §1
# [5] = Stability in whole blood (human); assay type: in vitro ADME; settings: 0.1 µM, 37 °C
# Procedure: Anonymized human blood samples were obtained from healthy volunteer donors upon informed written consent and in accordance with national legislation.
# as §1
# [6] = Hepatocyte stability (dog); assay type: in vitro ADME; settings: predicted hepatic clearance, well stirred model
# Procedure: Compounds (1.0 µM) were incubated in duplicates with rat, dog, minipig or human hepatocytes (1.0 million cells/mL) in phosphate buffer, in 96-well plates for 120 min (37 °C). Reactions were stopped by addition of cold acetonitrile, at 0, 10, 30, 60, and 120 min, and dispensed into cold acetonitrile to stop the reactions. Plates were centrifuged for 30 min and samples were analysed using liquid chromatography coupled to a time-of-flight mass spectrometer. Compound depletion over time was used to estimate the elimination rate constant, from which the apparent intrinsic clearance (CLapp), and half-life (t½), were calculated.
# [7] = In vivo pharmacokinetics in rat, i.v.
# Procedure: (§2) The pharmacokinetic profile of LEO 134310 was determined in rat (male Sprague Dawley) and dog (female Beagle) after intravenous (i.v.) injection at 1 mg/kg. LEO 134310 was administered in isotonic cyclodextrin solution at 0.5 mg/mL (0.1% Citrate buffer pH 4, 20% hydroxy-propyl-β-cyclodextrin in 0.2% NaCl). The i.v. dose was given as a bolus in rats and as a slow injection over 2 min in dogs. The dosing volume was 2 mL/kg. Blood was immediately diluted after sampling in an inhibitory cocktail containing acetylcholinesterase inhibitor Dichlorvos [1 mg/mL in an 8 mg/mL K2EDTA solution in phosphate buffer (PBS)] and samples were stored at − 80 °C until analysis. Samples were analyzed by LC–MS/MS using an API 5500/API 6500 QTRAP mass spectrometer. Pharmacokinetic parameters were derived from a non-compartment model in Phoenix64 (Pharsight, Certara).
# [8] = In vivo pharmacokinetics in dog, i.v.
# Procedure: as §2
# [9] = Compound concentration in dermis, human skin explants; assay type: in vitro ADME; settings: 24 h, propylene carbonate
# Procedure: NativeSkin models (NS002) were purchased from Genoskin, France. Human skin samples from abdominal reduction surgery were obtained by Genoskin from donors upon written informed consent. Full ethical approval for the study protocol was obtained from the French ethical research committee (Comité de Protection des Personnes), and authorization was given by the French Ministry of Research. The study was conducted according to the Declaration of Helsinki. 8 mm punch biopsies were excised and embedded in a fibrin-based matrix in transwells and a silicone ring was firmly attached to the surface covering the outer edge of the skin biopsy to prevent lateral diffusion of topically applied formulations. […]
# The concentrations of the compounds in dermis were determined from skin biopsies from the human skin explants. […] After homogenization, the samples were diluted, centrifuged and precipitated with acetonitrile containing internal standard (IS), and the compounds were thereafter quantified by means of liquid chromatography-tandem mass spectrometry (LC-MS/MS) using an AB Sciex 5500 or 6500 QTRAP. Calibration curves were prepared by spiking the analytes in blank homogenate, and a generic IS were used in quantification. The dermis micro molar concentrations were calculated assuming 1 gram of skin tissue equal to 1 mL.
# [10] = TPA mouse model, blood concentration after topical dose; assay type: in vivo; settings: blood concentrations at 2 h after the last topical dose
# Procedure: Treatments were performed by topical application of either vehicle (90% acetone, 10% transcutol), Treatments were applied twice daily on days 8, 9, 10, and once on day 11 (20–10 μL to each side of ear) with at least 5 h between the first and second treatment. TPA challenge on days 8 and 10 was performed at least 1 h after the first treatment. On day 11, animals were sacrificed 2 h after the last dosing. Blood was sampled by cardiac puncture from animals anaesthetized with isoflurane. Thereafter, ear biopsies were taken with a biopsy punch (8 mm diameter), weighed and stored at – 80 °C. Plasma osteocalcin levels were analyzed by EIA (rat-MID, IDS, UK). Effective inhibitory doses (ID50) were determined from a sigmoid I(max) model in Phoenix64, Pharsight, Certara. Therapeutic Index (TI) was calculated either as ID50 for spleen weight reduction or ID50 for blood osteocalcin concentrations, divided by ID50 for ear weight reduction.
SMILES,FKBP5 gene expression induced in skin [1],In vitro (blood) half-life [2],In vitro (blood) half-life [3],In vitro (blood) half-life [4],In vitro (blood) half-life [5],In vitro (hepatocytes) CLH [6],In vivo clearance relative to liver blood flow [7] [fold],In vivo clearance ([7]; i.v. 1 mg/kg),In vivo terminal half-life ([7]; i.v. 1 mg/kg),In vivo clearance relative to liver blood flow [8] [fold],In vivo clearance ([8]; i.v. 1 mg/kg),In vivo terminal half-life ([8]; i.v. 1 mg/kg),Higher dose needed to achieve similar dermis concentrations compared to BMV [9] [fold],Higher dose needed to achieve similar dermis concentrations compared to CP [9] [fold],Higher dose needed to achieve systemic exposure comparable to BMV [10] [fold],Higher dose needed to achieve systemic exposure comparable to CP [10] [fold]
"CCC(=O)O[C@]1(C(=O)CCl)[C@@H](C)C[C@H]2[C@@H]3CCC4=CC(=O)C=C[C@]4(C)[C@@]3(F)[C@@H](O)C[C@@]21C [CP, Clobetasol Propionate]",higher levels of FKBP5 gene expression,–,–,–,–,–,–,–,–,–,–,–,–,–,–,–
C[C@H](NC(=O)[C@H]1CCCO1)[C@H](Oc1ccc(C(=O)O[C@H]2CCCN(C(=O)[C@H]3COC(=O)C3)C2)cc1)c1ccc(C2CC2)cc1 [LEO 134310],–,"2.2 (2.1, 2.2) (n = 2) min",3.3 ± 2.1 (n = 5) min,3.8 (n = 1) min,6 min and 4.4 ± 2.2 (n = 4) min,> 30 (n = 1) mL/min/kg,5,360 ± 85 (n = 3) mL/min/kg,190 ± 171 (n = 3) min,15,470 ± 97 (n = 3) mL/min/kg,11 ± 1.2 (n = 3) min,3,7,800,200
